The subject of test [1] is salivary secretion in rat. As to the kind of experiment: Test on salivary secretion in rat (oxotremorine-induced). Type of test: in vivo, Male Wistar rats.
Test [2] has as its system bronchospasm in guinea pig. Type of test: in vivo, Hartley male guinea pig.
Test [3] has as its system rhythmic bladder contraction in rat. The test can be described thus: Test on rhythmic bladder contraction in rat (in vivo muscarinic antagonism). Set-up: species or system Wistar female rats.
For another test, the target named is T1, Muscarinic M3 receptor (Rattus norvegicus, UniProt P08483).
T1 construct: except that submandibular gland membranes were used and [^3H]-N-methylscopolamine was used as the labeled ligand; from tissue; host or cells: rat submandibular gland membranes (Wistar male rats, Nippon SLC)
T1 sequence (P08483 whole entry): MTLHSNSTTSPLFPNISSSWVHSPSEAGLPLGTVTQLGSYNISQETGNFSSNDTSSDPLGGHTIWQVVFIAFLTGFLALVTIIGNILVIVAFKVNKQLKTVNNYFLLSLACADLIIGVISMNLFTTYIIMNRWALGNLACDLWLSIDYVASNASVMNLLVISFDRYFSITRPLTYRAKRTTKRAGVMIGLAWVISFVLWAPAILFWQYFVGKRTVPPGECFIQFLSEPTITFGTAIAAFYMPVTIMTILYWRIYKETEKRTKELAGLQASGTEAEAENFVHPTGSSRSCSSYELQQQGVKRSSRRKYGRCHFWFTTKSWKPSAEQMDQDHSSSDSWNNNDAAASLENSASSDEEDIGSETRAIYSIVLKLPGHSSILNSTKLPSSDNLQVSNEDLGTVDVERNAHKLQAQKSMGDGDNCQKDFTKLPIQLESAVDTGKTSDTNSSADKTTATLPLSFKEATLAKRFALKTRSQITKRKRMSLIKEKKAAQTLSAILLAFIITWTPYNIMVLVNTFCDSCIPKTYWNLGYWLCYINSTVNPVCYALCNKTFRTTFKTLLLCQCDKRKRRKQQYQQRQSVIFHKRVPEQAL
The test can be described thus: Muscarinic M3 receptor binding test (submandibular gland membranes, [3H]-N-methylscopolamine). Set-up: species or system Wistar male rats.

The next test has as its target T2, muscarinic M2 receptors (Rattus norvegicus, UniProt P10980).
T2 sequence (P10980 1-466): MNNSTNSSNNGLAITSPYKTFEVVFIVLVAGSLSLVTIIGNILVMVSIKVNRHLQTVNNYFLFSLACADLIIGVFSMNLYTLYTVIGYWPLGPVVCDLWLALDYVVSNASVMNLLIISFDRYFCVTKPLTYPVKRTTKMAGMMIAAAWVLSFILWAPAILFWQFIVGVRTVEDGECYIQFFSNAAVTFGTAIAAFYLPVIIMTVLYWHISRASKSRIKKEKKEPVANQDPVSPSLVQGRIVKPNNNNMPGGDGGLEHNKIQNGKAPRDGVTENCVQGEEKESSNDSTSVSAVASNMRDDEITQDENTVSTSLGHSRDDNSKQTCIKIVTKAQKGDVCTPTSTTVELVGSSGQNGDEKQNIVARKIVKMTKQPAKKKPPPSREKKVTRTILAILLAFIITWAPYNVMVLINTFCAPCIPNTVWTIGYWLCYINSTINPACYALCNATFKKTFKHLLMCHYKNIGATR
The test can be described thus: biochemical. Type of test: binding, Wistar male rats.

Where [4] appears, read: rat submandibular gland membranes, [3H]-N-methylscopolamine, read-out: Ki (nM) M3 binding Test.
Where [5] appears, read: read-out: Ki (nM) M2 binding Test.
Setting [6] is: oxotremorine 0.8 µmol/kg 15 minutes after compound, saliva of 5 minutes.
Where [7] appears, read: urethane anesthesia, cumulative i.v. administration, 30% inhibition of peak bladder contractions.
Where [8] appears, read: methacholine 5 µg/kg i.v., 3 minutes after compound i.v.

Like-named read-outs stand apart in the source and are kept apart here.

In general, Ki refers to the equilibrium dissociation constant of an inhibitor or competing ligand from its target.

With `Cl.O=C(Nc1ccccc1-c1ccccc1)OC12CCN(CC1)CC2` [Example 4, 4-quinuclidinyl N-(2-biphenylyl)carbamate monohydrochloride], the “Salivary Secretion Test ED50 (mg/kg i.v.)” value (“Salivary Secretion Test ED50” for short) in test [1] (in vivo, iv) was 0.10 mg/kg i.v. Also, the “Bronchospasm Test ID50 (mg/kg i.v.)” value in test [2] (in vivo, iv) was 0.0082 mg/kg i.v. Also, the “Rhythmic Bladder Contraction Test ED30 (mg/kg i.v.)” value in test [3] (in vivo, iv) worked out at 0.014 mg/kg i.v. In addition, the Ki at Muscarinic M3 receptor is 0.39 nM; on muscarinic M2 receptors, 5.89 nM. The molecule also returned an M2/M3 at Muscarinic M3 receptor of 15.2.
On to `C[N+]1(C)CCC(OC(=O)Nc2ccccc2-c2ccccc2)CC1.[I-]` [Example 7, 4-[[N-(2-biphenylyl)carbamoyl]oxy]-1,1-dimethylpiperidinium iodide], for which the “Bronchospasm Test ID50 (mg/kg i.v.)” value in test [2] (in vivo, iv) was 0.0054 mg/kg i.v. For the same molecule, the Ki at Muscarinic M3 receptor (setting [4]) is 0.57 nM; at muscarinic M2 receptors (setting [5]), 14.7 nM. Moreover, at Muscarinic M3 receptor (ratio of Ki M2 to Ki M3), the M2/M3 is reported as 25.8.
Regarding “3-Quinuclidinyl N-[2-(2-cyclohexen-1-yl)phenyl]carbamate hemioxalate [Example 61]”, in test [1] (setting [6]), the “Salivary Secretion Test ED50” value is listed as 0.14 mg/kg i.v. Besides, in test [3] (setting [7]), the “Rhythmic Bladder Contraction Test ED30 (mg/kg i.v.)” value was 0.029 mg/kg i.v.
On to `Cl.O=C(Nc1ccccc1-c1ccccc1)OC1CN2CCC1CC2` (centres unmarked) [Example 1, 3-quinuclidinyl N-(2-biphenylyl)carbamate monohydrochloride], for which, in test [2] (setting [8]), the “Bronchospasm Test ID50 (mg/kg i.v.)” value worked out at 0.0045 mg/kg i.v. Further, the figures for the Ki at Muscarinic M3 receptor and at muscarinic M2 receptors were 0.94 nM and 25.9 nM, respectively. For the same molecule, the M2/M3 at Muscarinic M3 receptor (ratio of Ki M2 to Ki M3) is 27.6.
For the molecule “3-quinuclidinyl N-[2-(1H-pyrrol-1-yl)phenyl]carbamate monohydrochloride [Example 2]”, the “Salivary Secretion Test ED50” value in test [1] (setting [6]) worked out at 0.11 mg/kg i.v. Also, the “Rhythmic Bladder Contraction Test ED30 (mg/kg i.v.)” value in test [3] (setting [7]) is listed as 0.018 mg/kg i.v. Moreover, the Ki at Muscarinic M3 receptor (setting [4]) amounted to 4.89 nM; at muscarinic M2 receptors (setting [5]), 100 nM. At Muscarinic M3 receptor (ratio of Ki M2 to Ki M3), the M2/M3 is recorded as 20.4.
Consider `C[N+]12CCC(CC1)C(OC(=O)Nc1ccccc1-c1ccccc1)C2.[I-]` (centres unmarked) [Example 3, 3-[[N-(2-biphenylyl)carbamoyl]oxy]-1-methylquinuclidinium iodide], for which, in test [2] (setting [8]), the “Bronchospasm Test ID50 (mg/kg i.v.)” value was found to be 0.0038 mg/kg i.v. Moreover, the Ki stood at 0.56 nM on Muscarinic M3 receptor and 14.4 nM at muscarinic M2 receptors. The M2/M3 on Muscarinic M3 receptor (ratio of Ki M2 to Ki M3) was determined as 25.7.
For the molecule `O=C(Nc1ccccc1-c1ccccc1)OC1CCN(Cc2cccc(O)c2)CC1.O=C(O)C(=O)O` [Example 15, 1-(3-Hydroxybenzyl)-4-piperidyl N-(2-biphenylyl)carbamate monooxalate], the “Salivary Secretion Test ED50” value in test [1] (setting [6]) is 0.36 mg/kg i.v. Moreover, in test [3] (setting [7]), the “Rhythmic Bladder Contraction Test ED30 (mg/kg i.v.)” value was determined as 0.058 mg/kg i.v.
Regarding `CCN(CC)CC#CCOC(=O)C(O)(c1ccccc1)C1CCCCC1` (centres unmarked) [Oxybutynin, reference compound], the “Salivary Secretion Test ED50” value in test [1] (setting [6]) was found to be 0.18 mg/kg i.v. The “Rhythmic Bladder Contraction Test ED30 (mg/kg i.v.)” value in test [3] (setting [7]) was 0.24 mg/kg i.v.
As to `CN1[C@@H]2CC[C@H]1C[C@@H](OC(=O)C(CO)c1ccccc1)C2` (some centres unmarked) [Atropine, reference compound], the “Salivary Secretion Test ED50” value in test [1] (in vivo, iv) came to 0.0084 mg/kg i.v. Also, the “Bronchospasm Test ID50 (mg/kg i.v.)” value in test [2] (in vivo, iv) is listed as 0.0008 mg/kg i.v. In addition, the “Rhythmic Bladder Contraction Test ED30 (mg/kg i.v.)” value in test [3] (in vivo, iv) came out at 0.009 mg/kg i.v.

For the origin of these results see patent publication EP0747355A1, “NOVEL CARBAMATE DERIVATIVE AND MEDICINAL COMPOSITION CONTAINING THE SAME” (priority 1994, dated 1995).
